Experiments:
[1] = Cmax in ICR mouse at 2 mg/kg, iv measured upto 24 hrs by LC-MS/MS analysis; format: ADME, organism-based; design: time < 24 hrs, dose 2 mg/kg, route iv; conditions: in vivo
[2] = AUC (0 to infinity) in ICR mouse at 2 mg/kg, iv measured upto 24 hrs by LC-MS/MS analysis; format: ADME, organism-based; design: time < 24 hrs, dose 2 mg/kg, route iv; conditions: in vivo
[3] = MRT (0 to t) in ICR mouse at 2 mg/kg, iv measured upto 24 hrs by LC-MS/MS analysis; format: ADME, organism-based; conditions: in vivo
[4] = Metabolic stability in mouse liver microsomes assessed as half life incubated upto 60 mins in presence of NADPH by LC-MS/MS analysis; format: ADME, Microsome; conditions: 1 h
[5] = Half life in ICR mouse at 2 mg/kg, iv measured upto 24 hrs by LC-MS/MS analysis; format: ADME, organism-based; conditions: in vivo
[6] = Observed clearance in ICR mouse at 2 mg/kg, iv measured upto 24 hrs by LC-MS/MS analysis; format: ADME, organism-based; conditions: in vivo
[7] = AUC (0 to t) in ICR mouse at 10 mg/kg, po measured upto 24 hrs by LC-MS/MS analysis; format: ADME, organism-based; design: dose 10 mg/kg, time < 24 hrs, route po; conditions: in vivo
[8] = Cmax in ICR mouse at 10 mg/kg, po measured upto 24 hrs by LC-MS/MS analysis; format: ADME, organism-based; design: dose 10 mg/kg, time < 24 hrs, route po; conditions: in vivo
[9] = Tmax in ICR mouse at 2 mg/kg, iv measured upto 24 hrs by LC-MS/MS analysis; format: ADME, organism-based; conditions: in vivo
[10] = MRT (0 to t) in ICR mouse at 10 mg/kg, po measured upto 24 hrs by LC-MS/MS analysis; format: ADME, organism-based; conditions: in vivo
[11] = Tmax in ICR mouse at 10 mg/kg, po measured upto 24 hrs by LC-MS/MS analysis; format: ADME, organism-based; conditions: in vivo
[12] = AUC (0 to infinity) in ICR mouse at 10 mg/kg, po measured upto 24 hrs by LC-MS/MS analysis; format: ADME, organism-based; design: time < 24 hrs, dose 10 mg/kg, route po; conditions: in vivo
[13] = Half life in ICR mouse at 10 mg/kg, po measured upto 24 hrs by LC-MS/MS analysis; format: ADME, organism-based; conditions: in vivo
[14] = AUC (0 to t) in ICR mouse at 2 mg/kg, iv measured upto 24 hrs by LC-MS/MS analysis; format: ADME, organism-based; design: time < 24 hrs, dose 2 mg/kg, route iv; conditions: in vivo
[15] = Oral bioavailability in ICR mouse at 10 mg/kg measured upto 24 hrs by LC-MS/MS analysis; format: ADME, organism-based; conditions: in vivo

## C[C@@H](Oc1cc(NC(=O)c2cn(CCN3CCOCC3)c3cc(Br)c(C=O)nc23)ncc1C#N)c1c(Cl)cncc1Cl
[1]
  Cmax: 1640 ng/mL
[2]
  AUC(0-inf): 704 ng·h/mL
[3]
  MRT last at 24 h: 29.4 min
[4]
  t1/2: 696 min
[5]
  half-life: 45.6 min
[6]
  clearance: 49.7 mL/min/kg
[7]
  AUC(0-t) at 24 h: 29.5 ng·h/mL
[8]
  Cmax: 13.4 ng/mL
[9]
  Tmax: 4.98 min
[10]
  MRT last at 24 h: 104 min
[11]
  Tmax: 23.4 min
[12]
  AUC(0-inf): 38.6 ng·h/mL
[13]
  half-life: 196 min
[14]
  AUC(0-t) at 24 h: 702 ng·h/mL
[15]
  bioavailability: 1.1%

— ChEMBL document CHEMBL5214988, “Design, Synthesis, and Biological Evaluation of 5-Formyl-pyrrolo[3,2-b]pyridine-3-carboxamides as New Selective, Potent, and Reversible-Covalent FGFR4 Inhibitors” (J Med Chem, 2022)
